# According to patent US5977133A, “Pyridone antibiotic with improved safety profile” (priority 1998, dated 1999):
# Where a name gives a salt, the structure may show the parent alone.
# Assays:
# [1] = test system: S. aureus (CiproS); experiment: In vitro MIC, agar dilution; format: cell-based; conditions: Staphylococcus aureus
# [2] = test system: S. aureus (CiproR); experiment: In vitro MIC, agar dilution; format: cell-based; conditions: Staphylococcus aureus
# [3] = test system: E. faecalis (VanS); experiment: In vitro MIC, agar dilution; format: cell-based; conditions: Enterococcus faecalis
# [4] = test system: Enterococcus spp. (VanR); experiment: In vitro MIC, agar dilution; format: cell-based
# [5] = in vivo; conditions: mouse, ip
# [6] = mouse, in vivo, ip, 100 mg/kg
# [7] = test system: S. pneumoniae (PenS); experiment: In vitro MIC, agar dilution; format: cell-based; conditions: Streptococcus pneumoniae
# [8] = test system: E. faecium (CiproR); experiment: In vitro MIC, agar dilution; format: cell-based; conditions: Enterococcus faecium, read-out: MIC Range
# [9] = test system: E. coli; experiment: In vitro MIC, agar dilution; format: cell-based; conditions: Escherichia coli, 25 isolates
# Method: Each plate was inoculated with 1:100 (or 1:10 for slow-growing strains, primarily Micrococcus and Streptococcus) dilutions of up to 32 different microorganisms, using a Steers replicator block calibrated to deliver approximately 10^4 colony forming units (CFU's). The inoculated plates were incubated at from about 35° C. to about 37 ° C. for approximately 20-24 hours. In addition, a control plate using BHI agar containing no test compound was prepared and incubated at the beginning and at the end of each test. The quinolone antibacterial ciprofloxacin was used as a control ("Cntl").
# The numbers below the microorganism species indicate the nunbers of isolates tested. […] The MIC is defined as the lowest concentration of test compound yielding no growth (a slight haze or sparsely isolated colonies at the inoculum spot) as compared to the growth control containing no test compound.
# [10] = test system: Streptococcus pneumoniae 6303; experiment: In vivo efficacy, mouse infection (ED50); conditions: Streptococcus pneumoniae, 6303, in Mus musculus, 168 h
# [11] = test system: Escherichia coli JUHL; experiment: In vivo efficacy, mouse infection (ED50); conditions: Escherichia coli, in Mus musculus, 168 h
# [12] = test system: E. faecium (CiproS); experiment: In vitro MIC, agar dilution; format: cell-based; conditions: Enterococcus faecium
# [13] = test system: staphylococcus aureus NTCC 10649; experiment: In vivo efficacy, mouse infection (ED50); conditions: Staphylococcus aureus, NTCC10649, in Mus musculus, 168 h
# [14] = test system: P. aeruginosa (CiproS); experiment: In vitro MIC, agar dilution; format: cell-based; conditions: Pseudomonas aeruginosa
# [15] = test system: B. fragilis; experiment: In vitro MIC, agar dilution; format: cell-based; conditions: Bacteroides fragilis
# [16] = test system: P. aeruginosa (CiproR); experiment: In vitro MIC, agar dilution; format: cell-based; conditions: Pseudomonas aeruginosa, P. aeruginosa (CiproR), 20 isolates
# [17] = test system: S. pneumoniae (PenR); experiment: In vitro MIC, agar dilution; format: cell-based; conditions: Streptococcus pneumoniae
smiles,measurement,setting,value
"Cc1c(N2CC[C@H](N)C2)c(F)cn2c(=O)c(C(=O)O)cc(C3CC3)c12 [Example 2, 1-cyclopropyl-8-(3(S)-3-amino-1-pyrrolidinyl)-7-fluoro-9-methvl-4-oxo-4H-quinolizine-3-carboxylic acid hydrochloride]",MIC90,[1],0.015 µg/mL
same,MIC50,"[1]; S. aureus (CiproS), 21 isolates, read-out: MIC50",0.008 µg/mL
same,MIC,"[1]; S. aureus (CiproS), 21 isolates, read-out: MIC Range",0.008 to 0.015 µg/mL
same,MIC90,[2],0.25 µg/mL
same,MIC50,"[2]; S. aureus (CiproR), 25 isolates, read-out: MIC50",0.25 µg/mL
same,MIC,"[2]; S. aureus (CiproR), 25 isolates, read-out: MIC Range",0.03 to 1 µg/mL
same,MIC90,[3],0.12 µg/mL
same,MIC50,"[3]; E. faecalis (VanS), 17 isolates, read-out: MIC50",0.06 µg/mL
same,MIC,"[3]; E. faecalis (VanS), 17 isolates, read-out: MIC Range",0.03 to 0.12 µg/mL
same,MIC90,[4]; Enterococcus,0.25 µg/mL
same,MIC50,"[4]; Enterococcus spp. (VanR), 21 isolates, read-out: MIC50",0.25 µg/mL
same,MIC,"[4]; Enterococcus spp. (VanR), 21 isolates, read-out: MIC Range",0.12 to 2 µg/mL
same,LD50 at 504 h,[5],38.8 mg/kg
same,body weight loss,[6],38%
same,MIC50,[7],0.03 µg/mL
same,MIC90,[7],0.03 µg/mL
same,MIC,"[7]; S. pneumoniae (PenS), 20 isolates, read-out: MIC Range",0.015 to 0.03 µg/mL
same,MIC,[8],0.5 to 2 µg/mL
same,MIC,[9],0.004 to 0.015 µg/mL
same,MIC50,[9]; read-out: MIC50,0.004 µg/mL
same,MIC90,[9]; read-out: MIC90,0.008 µg/mL
same,ED50,[10]; po,5.3 mg/kg
same,ED50,[10]; sc,1.6 mg/kg
same,ED50,[11]; po,0.6 mg/kg
same,ED50,[11]; sc,0.1 mg/kg
same,MIC90,[12],0.25 µg/mL
same,MIC,[12]; read-out: MIC Range,0.25 to 0.5 µg/mL
same,MIC50,"[12]; E. faecium (CiproS), 16 isolates, read-out: MIC50",0.25 µg/mL
same,ED50,[13]; po,3.4 mg/kg
same,ED50,[13]; sc,0.6 mg/kg
same,MIC90,[14],0.25 µg/mL
same,MIC50,"[14]; P. aeruginosa (CiproS), 24 isolates, read-out: MIC50",0.06 µg/mL
same,MIC,"[14]; P. aeruginosa (CiproS), 24 isolates, read-out: MIC Range",0.015 to 0.5 µg/mL
same,MIC90,[15],0.5 µg/mL
same,MIC,[15]; read-out: MIC Range,0.06 to 0.5 µg/mL
same,MIC50,"[15]; B. fragilis, 18 isolates, read-out: MIC50",0.12 µg/mL
same,MIC50,[16]; read-out: MIC50,2 µg/mL
same,MIC90,[16]; read-out: MIC90,2 µg/mL
same,MIC,[16]; read-out: MIC Range,1 to 4 µg/mL
same,MIC50,[17],0.03 µg/mL
same,MIC90,[17],0.03 µg/mL
same,MIC,"[17]; S. pneumoniae (PenR), 25 isolates, read-out: MIC Range",0.03 µg/mL
